In patent US20240254510A1, “METHODS FOR GENERATING MECHANICALLY-RESPONSIVE CELLS AND USES THEREOF” (Washington University, priority 2021, published 2024):

Columns and labels:
[1] = biological target: T1, TRPV4 (Sus scrofa, UniProt B3VP30); assay: IL-1Ra production by mechanogenetic cartilage constructs (ELISA); assay type: cell-based, porcine; conditions: NFKBr-IL1Ra tissues, 1 nM GSK101 3 hours/day over 5 days vs DMSO
T1 construct: endogenous in cells; host or cells: primary porcine articular chondrocytes (femurs of pigs from a local abattoir)
T1 sequence (B3VP30 1-871): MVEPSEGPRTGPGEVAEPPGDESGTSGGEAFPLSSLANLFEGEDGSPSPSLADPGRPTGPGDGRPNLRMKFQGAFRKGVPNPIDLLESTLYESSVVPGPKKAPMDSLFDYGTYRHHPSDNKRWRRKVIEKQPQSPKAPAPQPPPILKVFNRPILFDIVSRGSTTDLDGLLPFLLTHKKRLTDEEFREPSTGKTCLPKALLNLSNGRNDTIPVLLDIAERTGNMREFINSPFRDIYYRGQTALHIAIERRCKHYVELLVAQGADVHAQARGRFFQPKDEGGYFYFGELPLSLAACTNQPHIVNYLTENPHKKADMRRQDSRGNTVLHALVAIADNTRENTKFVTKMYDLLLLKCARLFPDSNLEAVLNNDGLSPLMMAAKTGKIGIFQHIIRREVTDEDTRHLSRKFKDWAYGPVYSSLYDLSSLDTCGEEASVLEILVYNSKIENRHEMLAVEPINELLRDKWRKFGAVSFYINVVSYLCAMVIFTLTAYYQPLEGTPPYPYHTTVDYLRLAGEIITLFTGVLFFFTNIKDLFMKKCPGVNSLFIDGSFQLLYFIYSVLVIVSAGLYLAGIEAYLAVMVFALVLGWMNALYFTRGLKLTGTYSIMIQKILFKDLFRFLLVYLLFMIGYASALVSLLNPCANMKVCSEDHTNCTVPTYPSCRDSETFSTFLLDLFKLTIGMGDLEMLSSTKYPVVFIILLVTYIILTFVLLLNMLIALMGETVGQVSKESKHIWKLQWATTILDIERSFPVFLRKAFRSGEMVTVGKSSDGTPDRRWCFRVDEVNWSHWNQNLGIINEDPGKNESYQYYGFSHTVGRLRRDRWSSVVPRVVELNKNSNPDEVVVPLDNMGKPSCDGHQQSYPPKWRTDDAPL
Description: Synthetic mechanogenetic circuits respond to TRPV4 activation to drive transgene expression: TRPV4 activation in response to mechanical loading up-regulates a diverse group of targeted genes. On the basis of the TRPV4-activated signaling pathway, activation of the nuclear factor κ light chain enhancer of activated B cells (NF-κB) pathway was identified and up-regulation of the prostaglandin-endoperoxide synthase 2 (PTGS2) gene as two distinct avenues to construct TRPV4-responsive synthetic mechanogenetic gene circuits. […]
Osmotic stimulation—For calcium imaging studies, osmotic loading media were prepared using Hanks' balanced salt solution medium (Gibco). […] These media were titrated to hypo-osmotic media by adding distilled water and measured with a freezing point osmometer (Osmette 2007; Precision Systems). […]
Mechanogenetic circuit testing outcome measures: Assessing mechanogenetic tissue construct activation in IL-1Ra-producing constructs was measured with an enzyme-linked immunosorbent assay for mouse IL-1Ra (R&D Systems) according to the manufacturer's protocols. […]

[2] = biological target: T1, TRPV4; assay: Microarray transcriptomic profile of engineered cartilage after mechanical loading or GSK101; assay type: cell-based, porcine
Description: TRPV4 activation in chondrocytes induces transient anabolic and inflammatory signaling networks: Next, it was sought to understand the time course of specific downstream signaling pathways and GRNs regulated by mechanical activation of TRPV4 using microarray analysis. Because TRPV4 is a multimodal channel, downstream signaling is likely dependent on the activation mode as well as cell and tissue type. For these studies, primary porcine chondrocytes were cast in agarose to create engineered cartilage constructs and subjected to either compressive mechanical loading [10% sinusoidal peak-to-peak strain at 1 Hz for 3 hours as described previously] or pharmacologic stimulation with the TRPV4 agonist GSK101 (1 nM for 3 hours), or left unloaded (free-swelling controls), and measured the transcriptional activity at 0, 3, 12, and 20 hours following an initial round of stimulation and then at 24 and 72 hours after additional daily bouts of mechanical loading or GSK101 (n=3 per condition per time point; FIG. 3A). […] Up-regulation of these targets was immediate and subsided quickly, with transcript levels returning to baseline 12 to 20 hours after activation.
Microarray collection and analysis: After a 14-day preculture, engineered cartilage constructs (04 mm×2.25 mm) were stimulated under 10% compressive loading or 1 nM GSK101 for 3 hours per day for 3 days. Unstimulated controls (free-swelling) constructs were cultured under identical conditions. Immediately after stimulation, constructs were washed and then fed with culture medium. Constructs were snap-frozen in liquid N2 at 0, 3, 6, 12, 20, 24, and 72 hours after initial stimulation. Total RNA was extracted from the constructs using a pestle homogenizer and the Norgen Biotek RNA/protein purification plus kit. RNA quantity and quality were assessed with NanoDrop (Thermo Fisher Scientific) and the Agilent Bioanalyzer. Total RNA was processed using the Ambion WT expression labeling kit and the Porcine Gene 1.0 ST Array (Affymetrix). […]

[3] = system: TRPV4; assay: RNA-sequencing of tissue engineered cartilage: mechanical loading, GSK101, IL-1α; assay type: cell-based; conditions: GSK101 TRPV4 activation, 24 hour time course
Protocol: RNA-sequencing was performed to assess mechanically-sensitive gene targets that are distinct from a cellular inflammation response. […] Targets of interest were selected as targets that were shared between stimulation to mechanical loading and GSK101 agonist activation of TRPV4 but not stimulated by IL-1α inflammation.

[4] = system: Piezo1; assay: RNA-seq of tissue engineered cartilage after 80% strain or Yoda1 stimulation; assay type: cell-based; conditions: 80% strain or Yoda1, RNA-seq
Protocol: Tissue engineered cartilage tissues were either mechanically loaded to 80% strain or stimulated with the Piezo1 agonist Yoda1. Control tissues (FS group) were cultured in vehicle control media and left under free-swelling (non loaded) conditions. RNA-seq was used to assess the transcriptomic regulation to high mechanical loading or Yoda1-stimulation.
Volcano plot projections of gene targets that are differentially regulated by mechanical loading to 80% strain (FIG. 9 left graph) or Yoda1 stimulation (FIG. 9 right graph) display a range of targets that are regulated by Piezo1 stimulation (targets highlighted in red are |LFC|>1 and FDR (padj)<0.05).

Row | Compound | circuit response to pharmacologic activation of TRPV4 [1] | genes commonly responsive to both mechanical loading and pharmacologic activation of TRPV4 ([2]; 0, 24 and 72 hours) [genes] | transcripts repeatedly responsive to GSK101 supplementation ([2]; 0, 24 and 72 hours, daily bouts of 1 nM GSK101) [transcripts] | transcripts up-regulated under both mechanical loading and pharmacologic stimulation ([2]; first 20 hours after initial stimulation, GSK101 1 nM for 3 hours, vs unloaded controls) [transcripts] | regulation of FGF1, PMEPA1 and snora70 [3] | gene targets similarly regulated by mechanical loading and Yoda1 stimulation [4]
1 | CC(C)C[C@H](NC(=O)c1cc2ccccc2s1)C(=O)N1CCN(C(=O)[C@H](CO)NS(=O)(=O)c2ccc(Cl)cc2Cl)CC1 [GSK101] | activated the NFKBr-IL1Ra circuit | 15 | 112 | 43 | significantly upregulated | 
2 | Clc1cccc(Cl)c1CSc1nnc(-c2cnccn2)s1 [Yoda1] |  |  |  |  |  | ADAMTS1, IGSF9B, PTGS2, NR4A2, LOC100512181, NR4A1, INHBA, and CSRNP2
